{"source": "patent US7691863B2", "about": "“Pyrazine-2-carboxamide derivatives as CB2 receptor modulators” (Hoffman-La Roche Inc., priority 2006, dated 2010)", "data": [{"biological_target": "T1, human cannabinoid CB2 receptor (Homo sapiens, UniProt P34972)", "T1 construct": "expressed in transfected cells; host or cells: human embryonic kidney (HEK) cells, transient, Semliki Forest virus system", "T1 sequence (P34972 whole entry)": "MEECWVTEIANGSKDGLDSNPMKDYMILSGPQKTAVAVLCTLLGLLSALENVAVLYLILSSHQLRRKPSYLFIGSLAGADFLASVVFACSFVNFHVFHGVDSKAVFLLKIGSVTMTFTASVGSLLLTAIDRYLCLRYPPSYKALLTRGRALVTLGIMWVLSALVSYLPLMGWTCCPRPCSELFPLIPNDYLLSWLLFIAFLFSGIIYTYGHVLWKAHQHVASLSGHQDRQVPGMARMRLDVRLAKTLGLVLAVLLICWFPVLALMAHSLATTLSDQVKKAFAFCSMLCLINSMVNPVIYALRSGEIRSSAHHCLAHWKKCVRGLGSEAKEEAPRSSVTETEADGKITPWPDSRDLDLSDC", "assay": "Affinity for cannabinoid CB2 receptors, [3H]-CP-55,940 radioligand binding on membrane preparations of transfected HEK cells", "conditions": "[3H]-CP-55,940 as radioligand, HEK cell membranes", "protocol": "The affinity of the compounds of the invention for cannabinoid CB2 receptors was determined using membrane preparations of human embryonic kidney (HEK) cells in which the human cannabinoid CB2 receptor is transiently transfected using the Semliki Forest virus system in conjunction with [3H]-CP-55,940 as radioligand. After incubation of a cell membrane preparation with the [3H]-ligand, with or without addition of compounds of the invention, separation of bound and free ligand was performed by filtration over glassfiber filters. Radioactivity on the filter was measured by liquid scintillation counting.", "units": {"Ki": "µM"}, "values": [{"molecule": "CC(C)C[C@@H](CO)NC(=O)c1cnc(OCC2CC2)c(N2CCCCC2)n1", "note": "[Example 44, 5-Cyclopropylmethoxy-6-piperidin-1-yl-pyrazine-2-carboxylic acid ((S)-1-hydroxymethyl-3-methyl-butyl)-amide]", "Ki": 0.043}, {"molecule": "6-Cyclopropylmethoxy-5-pyrrolidin-1-yl-pyrazine-2-carboxylic acid ((S)-1-hydroxymethyl-3-methyl-butyl)-amide [Example 4]", "Ki": 0.044}, {"molecule": "2-Ethyl-2-{[5-pyrrolidin-1-yl-6-(2,2,2-trifluoro-ethoxy)-pyrazine-2-carbonyl]-amino}-pentanoic acid methyl ester [Example 14]", "Ki": 0.063}]}]}
